Source: PubChem BioAssay (NCI)
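Grown in 96-well plates, cells were treated for 48 hours with each compound at five concentrations. Insufficient inhibition: endpoint recorded as highest concentration tested. TGI marks complete inhibition of growth.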

Key:
Experiment in all cases: NCI tumour cell line growth inhibition, 48 h
786-0 renal = tested on: 786-0 renal
A549 NSCLC = tested on: A549 NSCLC
ACHN renal = tested on: ACHN renal
CAKI-1 renal = tested on: CAKI-1 renal
CCRF-CEM leukemia = tested on: CCRF-CEM leukemia
COLO 205 colon = tested on: COLO 205 colon
DLD-1 colon = tested on: DLD-1 colon
DMS 114 small cell lung = tested on: DMS 114 small cell lung
DMS 273 small cell lung = tested on: DMS 273 small cell lung
EKVX NSCLC = tested on: EKVX NSCLC
HCC-2998 colon = tested on: HCC-2998 colon
HCT-15 colon = tested on: HCT-15 colon
HL-60(TB) leukemia = tested on: HL-60(TB) leukemia
HOP-62 NSCLC = tested on: HOP-62 NSCLC
HOP-92 NSCLC = tested on: HOP-92 NSCLC
HT29 colon = tested on: HT29 colon
IGROV1 ovarian = tested on: IGROV1 ovarian
K-562 leukemia = tested on: K-562 leukemia
KM12 colon = tested on: KM12 colon
KM20L2 colon = tested on: KM20L2 colon
LOX IMVI melanoma = tested on: LOX IMVI melanoma
LXFL 529 NSCLC = tested on: LXFL 529 NSCLC
M14 melanoma = tested on: M14 melanoma
M19-MEL melanoma = tested on: M19-MEL melanoma
MALME-3M melanoma = tested on: MALME-3M melanoma
MOLT-4 leukemia = tested on: MOLT-4 leukemia
NCI-H23 lung = tested on: NCI-H23 lung
NCI-H460 lung = tested on: NCI-H460 lung
NCI-H522 lung = tested on: NCI-H522 lung
OVCAR-3 ovarian = tested on: OVCAR-3 ovarian
OVCAR-4 ovarian = tested on: OVCAR-4 ovarian
OVCAR-5 ovarian = tested on: OVCAR-5 ovarian
OVCAR-8 ovarian = tested on: OVCAR-8 ovarian
RPMI-8226 leukemia = tested on: RPMI-8226 leukemia
RXF 393 renal = tested on: RXF 393 renal
RXF-631 renal = tested on: RXF-631 renal
SF-268 CNS = tested on: SF-268 CNS
SF-295 CNS = tested on: SF-295 CNS
SK-MEL-2 melanoma = tested on: SK-MEL-2 melanoma
SK-MEL-28 melanoma = tested on: SK-MEL-28 melanoma
SK-MEL-5 melanoma = tested on: SK-MEL-5 melanoma
SK-OV-3 ovarian = tested on: SK-OV-3 ovarian
SN12C renal = tested on: SN12C renal
SNB-75 CNS = tested on: SNB-75 CNS
SNB-78 CNS = tested on: SNB-78 CNS
SW-620 colon = tested on: SW-620 colon
TK-10 renal = tested on: TK-10 renal
UACC-257 melanoma = tested on: UACC-257 melanoma
UACC-62 melanoma = tested on: UACC-62 melanoma
XF 498 CNS = tested on: XF 498 CNS
HCT-116 colon = tested on: HCT-116 colon
NCI-H226 lung = tested on: NCI-H226 lung
SF-539 CNS = tested on: SF-539 CNS
SNB-19 CNS = tested on: SNB-19 CNS
SR leukemia = tested on: SR leukemia
U251 CNS = tested on: U251 CNS
UO-31 renal = tested on: UO-31 renal

CCOC(=O)C(C)c1c(C(=O)c2ccc(C)nc2)c2ccccc2n1C (configuration not stated)
TGI (786-0 renal): > 100 µM
TGI (A549 NSCLC): > 100 µM
TGI (ACHN renal): > 100 µM
TGI (CAKI-1 renal): > 100 µM
TGI (CCRF-CEM leukemia): > 100 µM
TGI (COLO 205 colon): > 100 µM
TGI (DLD-1 colon): > 100 µM
TGI (DMS 114 small cell lung): > 100 µM
TGI (DMS 273 small cell lung): > 100 µM
TGI (EKVX NSCLC): > 100 µM
TGI (HCC-2998 colon): > 100 µM
TGI (HCT-15 colon): > 100 µM
TGI (HL-60(TB) leukemia): > 100 µM
TGI (HOP-62 NSCLC): > 100 µM
TGI (HOP-92 NSCLC): > 100 µM
TGI (HT29 colon): > 100 µM
TGI (IGROV1 ovarian): > 100 µM
TGI (K-562 leukemia): > 100 µM
TGI (KM12 colon): > 100 µM
TGI (KM20L2 colon): > 100 µM
TGI (LOX IMVI melanoma): > 100 µM
TGI (LXFL 529 NSCLC): > 100 µM
TGI (M14 melanoma): > 100 µM
TGI (M19-MEL melanoma): > 100 µM
TGI (MALME-3M melanoma): > 100 µM
TGI (MOLT-4 leukemia): > 100 µM
TGI (NCI-H23 lung): > 100 µM
TGI (NCI-H460 lung): > 100 µM
TGI (NCI-H522 lung): > 100 µM
TGI (OVCAR-3 ovarian): > 100 µM
TGI (OVCAR-4 ovarian): > 100 µM
TGI (OVCAR-5 ovarian): > 100 µM
TGI (OVCAR-8 ovarian): > 100 µM
TGI (RPMI-8226 leukemia): > 100 µM
TGI (RXF 393 renal): > 100 µM
TGI (RXF-631 renal): > 100 µM
TGI (SF-268 CNS): > 100 µM
TGI (SF-295 CNS): > 100 µM
TGI (SK-MEL-2 melanoma): > 100 µM
TGI (SK-MEL-28 melanoma): > 100 µM
TGI (SK-MEL-5 melanoma): > 100 µM
TGI (SK-OV-3 ovarian): > 100 µM
TGI (SN12C renal): > 100 µM
TGI (SNB-75 CNS): > 100 µM
TGI (SNB-78 CNS): > 100 µM
TGI (SW-620 colon): > 100 µM
TGI (TK-10 renal): > 100 µM
TGI (UACC-257 melanoma): > 100 µM
TGI (UACC-62 melanoma): > 100 µM
TGI (XF 498 CNS): > 100 µM

COC1=CC(=Nc2c(Cl)cc(Cl)cc2OC(=O)c2ccc([N+](=O)[O-])cc2)C=C(OC)C1=O
TGI (786-0 renal): 28 µM
TGI (A549 NSCLC): 23.4 µM
TGI (ACHN renal): 22.6 µM
TGI (CAKI-1 renal): 31.7 µM
TGI (CCRF-CEM leukemia): > 25.9 µM
TGI (COLO 205 colon): 33.6 µM
TGI (DLD-1 colon): 30 µM
TGI (DMS 114 small cell lung): 8.52 µM
TGI (DMS 273 small cell lung): 30.5 µM
TGI (EKVX NSCLC): 29.5 µM
TGI (HCC-2998 colon): 32.4 µM
TGI (HCT-116 colon): 18.9 µM
TGI (HCT-15 colon): 20.8 µM
TGI (HL-60(TB) leukemia): 12.1 µM
TGI (HOP-62 NSCLC): 36.2 µM
TGI (HOP-92 NSCLC): 14.8 µM
TGI (HT29 colon): 33.5 µM
TGI (IGROV1 ovarian): 31.2 µM
TGI (K-562 leukemia): 27 µM
TGI (KM12 colon): 29.4 µM
TGI (KM20L2 colon): 32.8 µM
TGI (LOX IMVI melanoma): 5.67 µM
TGI (LXFL 529 NSCLC): 18.5 µM
TGI (M14 melanoma): 25.8 µM
TGI (M19-MEL melanoma): 10.8 µM
TGI (MALME-3M melanoma): 28.9 µM
TGI (MOLT-4 leukemia): 26.7 µM
TGI (NCI-H226 lung): 28.7 µM
TGI (NCI-H23 lung): 22.9 µM
TGI (NCI-H460 lung): 31.3 µM
TGI (NCI-H522 lung): 23.6 µM
TGI (OVCAR-3 ovarian): 20.9 µM
TGI (OVCAR-4 ovarian): 21.9 µM
TGI (OVCAR-5 ovarian): 33.7 µM
TGI (OVCAR-8 ovarian): 20.2 µM
TGI (RPMI-8226 leukemia): > 39.1 µM
TGI (RXF 393 renal): 24.6 µM
TGI (RXF-631 renal): 11.1 µM
TGI (SF-268 CNS): 23.2 µM
TGI (SF-295 CNS): 23.7 µM
TGI (SF-539 CNS): 23.4 µM
TGI (SK-MEL-2 melanoma): 29.9 µM
TGI (SK-MEL-28 melanoma): 30.5 µM
TGI (SK-MEL-5 melanoma): 20.4 µM
TGI (SK-OV-3 ovarian): 30.8 µM
TGI (SN12C renal): 24.3 µM
TGI (SNB-19 CNS): 30 µM
TGI (SNB-75 CNS): 27.8 µM
TGI (SNB-78 CNS): 56.9 µM
TGI (SR leukemia): 15.3 µM
TGI (SW-620 colon): 26.8 µM
TGI (TK-10 renal): 37.4 µM
TGI (U251 CNS): 27.1 µM
TGI (UACC-257 melanoma): 24.2 µM
TGI (UACC-62 melanoma): 15.6 µM
TGI (UO-31 renal): 24.3 µM
TGI (XF 498 CNS): 21.5 µM
